Measurements as given in PubChem BioAssay (NCI).
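Five concentrations, 48 hours, 96-well plates. Abbreviation: GI50, concentration required for 50% inhibition of growth. At the TGI there is no net growth.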

What was measured:
Experiment in all cases: NCI anticancer screen, dose series, 48 h
NCI-H226 lung = system: NCI-H226 lung
M14 melanoma = system: M14 melanoma
RPMI-8226 leukemia = system: RPMI-8226 leukemia
OVCAR-4 ovarian = system: OVCAR-4 ovarian
OVCAR-5 ovarian = system: OVCAR-5 ovarian
SK-MEL-5 melanoma = system: SK-MEL-5 melanoma
SW-620 colon = system: SW-620 colon
HCT-15 colon = system: HCT-15 colon
HS 578T breast = system: HS 578T breast
MDA-MB-435 = system: MDA-MB-435

SMILES	TGI (NCI-H226 lung) [µM]	TGI (M14 melanoma) [µM]	TGI (RPMI-8226 leukemia) [µM]	TGI (OVCAR-4 ovarian) [µM]	TGI (OVCAR-5 ovarian) [µM]	TGI (SK-MEL-5 melanoma) [µM]	TGI (SW-620 colon) [µM]	TGI (HCT-15 colon) [µM]	GI50 (NCI-H226 lung) [µM]	GI50 (M14 melanoma) [µM]	GI50 (RPMI-8226 leukemia) [µM]	GI50 (OVCAR-4 ovarian) [µM]	GI50 (HS 578T breast) [µM]	TGI (HS 578T breast) [µM]	GI50 (OVCAR-5 ovarian) [µM]	GI50 (SK-MEL-5 melanoma) [µM]	GI50 (SW-620 colon) [µM]	GI50 (HCT-15 colon) [µM]	GI50 (MDA-MB-435) [µM]	TGI (MDA-MB-435) [µM]
Cc1ccc2[nH]c(=O)c(C(C#N)c3ccccc3)nc2c1 (centres undefined)	> 100	> 100	> 100	> 100	> 100	57.8	> 100	> 100	–	–	–	–	–	–	–	–	–	–	–	–
CN=S(=O)(C[C@]1(O)CC2OC1C1OC(C)(C)OC21)c1ccccc1 (some centres undefined)	> 100	> 100	> 100	> 100	> 100	> 100	> 100	> 100	–	–	–	–	–	–	–	–	–	–	–	–
C=CCN(N=O)C(=O)N(CCC)CCCCC(NC(C)=O)C(=O)NCc1ccccc1 (centres undefined)	> 100	> 100	> 100	> 100	> 100	> 100	> 100	> 100	–	–	–	–	–	–	–	–	–	–	–	–
CCOC(=O)C1=C(C)N(NC(=O)c2ccccc2)C2(O)CCCC12C(=O)OCC (centres undefined)	> 100	> 100	> 100	> 100	> 100	> 100	> 100	> 100	–	–	–	–	–	–	–	–	–	–	–	–
CCOC(=O)/C=C1\Nc2ccccc2-n2nnnc21	> 100	> 100	> 100	> 100	> 100	> 100	58.6	> 100	–	–	–	–	–	–	–	–	–	–	–	–
CCOC(=O)c1c(Cl)c2c(n1Cc1cc(OC)cc(OC)c1)-c1oncc1CCC2	> 100	> 100	> 100	> 85.3	> 100	> 100	> 100	> 100	6.84	0.266	0.383	1.91	0.451	> 100	0.812	0.451	0.344	0.387	–	–
COc1ccc2c(c1)[n+]([O-])c(-c1nc3ccccc3s1)c(N)[n+]2[O-]	> 100	> 100	> 100	> 100	> 100	> 100	> 100	> 100	–	–	–	–	–	–	–	–	–	–	–	–
Cc1ccc(S(=O)(=O)N/N=C(\C(=O)Nc2cccc([N+](=O)[O-])c2)c2nc3ccc([N+](=O)[O-])cc3[nH]c2=O)cc1	> 100	> 100	> 100	> 100	> 100	> 100	> 100	> 100	–	–	–	–	–	–	–	–	–	–	–	–
Cn1c2cccc3nnc4cccc(c4c32)n1C	> 100	> 100	> 100	> 100	> 100	> 100	> 100	> 100	–	–	–	–	–	–	–	–	–	–	–	–
Cc1c(CCl)c(=O)oc2c(C)c3occ(CCl)c(=O)c3cc12	48.7	37.5	26.8	–	> 100	> 100	> 100	64.6	–	–	–	–	–	–	–	–	–	–	–	–
O=C(CC1(O)C(=O)Nc2c(Cl)cc(Cl)cc21)c1ccc2ccccc2c1 (centres undefined)	–	16.6	29.8	26.4	30.3	18.8	14.7	14.2	–	–	–	–	–	–	–	–	–	–	–	–
CN1CCN(Cc2ccc(Nc3ncc(Cl)c(Nc4ccccc4S(=O)(=O)N(C)C)n3)cc2)CC1	0.859	0.277	1.24	0.649	> 100	0.387	> 100	–	0.0915	0.0608	0.0103	0.072	0.0984	1.18	0.0378	0.0759	0.0254	–	0.0274	0.429
CCN(CC)CCOc1cc2c(C(=O)OC)c(C)oc2cc1C(C)=O	25.2	16.9	7.39	–	29.1	19	23.9	22.7	11.4	4.53	2.76	–	13.4	31.4	15.4	6.62	7.56	10.5	16.1	33.9
CCN(CC)c1ccc2c(c1)N=C1N=CC=CN1C2(c1ccc(N(C)C)cc1)c1ccc(N(C)C)cc1	27.2	10.5	8.1	–	27.4	26.7	–	28.1	–	–	–	–	–	–	–	–	–	–	–	–
Clc1ccc2nc(CCSCCc3nc4ccc(Cl)cc4[nH]3)[nH]c2c1	41.8	26.5	13.5	28.5	25.2	18.4	27	26.5	–	–	–	–	–	–	–	–	–	–	–	–
O=C(O)/C(Cl)=C(\Cl)C(=O)Nc1ccccc1	> 100	> 100	> 100	> 100	> 100	> 100	> 100	> 100	–	–	–	–	–	–	–	–	–	–	–	–
CCOC(=O)c1cc2ncccc2c2ccccc12	> 100	> 100	> 100	> 100	> 100	> 100	–	> 100	–	–	–	–	–	> 100	–	–	–	–	–	> 100
CC12CC3CC(C)(C1)CC(N=[N+]=[N-])(C3)C2	> 100	> 100	> 100	> 100	> 100	> 100	> 100	–	–	–	–	–	–	–	–	–	–	–	–	–
O=C(NCC#CCO)C(F)(F)F	> 100	> 100	–	> 100	> 100	> 100	> 100	> 100	–	–	–	–	–	–	–	–	–	–	–	–
Cc1c(Cl)ccc2c1NC(=O)C2(O)C1Cc2ccccc2C1=O (centres undefined)	> 100	> 100	> 100	> 100	> 100	> 100	> 100	> 100	–	–	–	–	–	–	–	–	–	–	–	–
COc1ccccc1NC(=O)C1=C(C)NC(C)=C(C(=O)Nc2ccccc2OC)C1c1ccccc1OC	> 100	> 100	> 100	> 100	> 100	> 100	> 100	> 100	–	–	–	–	–	–	–	–	–	–	–	–
CC1C(=O)N(C)C2(CO)C(=O)O[C@H](C)C12O (some centres undefined)	–	> 100	> 100	> 100	> 100	> 100	–	> 100	–	–	–	–	–	–	–	–	–	–	–	–
